# Laboratory results taken from article PMC4992173, “Divergent synthesis and identification of the cellular targets of deoxyelephantopins” (Nature Communications, 2016).
# Tests used:
# PPARγ = biological target: T1, PPARγ (Homo sapiens, UniProt P37231); test: Gel-based in situ competition of PPARγ overexpressed in HeLa cells; assay type: cell-based; parameters: host or cells: HeLa; conditions: HeLa cells expressing PPARγ, 20 µM in situ 4 h, then 10 µM 24c-Cy3
# T1 sequence (P37231 1-505): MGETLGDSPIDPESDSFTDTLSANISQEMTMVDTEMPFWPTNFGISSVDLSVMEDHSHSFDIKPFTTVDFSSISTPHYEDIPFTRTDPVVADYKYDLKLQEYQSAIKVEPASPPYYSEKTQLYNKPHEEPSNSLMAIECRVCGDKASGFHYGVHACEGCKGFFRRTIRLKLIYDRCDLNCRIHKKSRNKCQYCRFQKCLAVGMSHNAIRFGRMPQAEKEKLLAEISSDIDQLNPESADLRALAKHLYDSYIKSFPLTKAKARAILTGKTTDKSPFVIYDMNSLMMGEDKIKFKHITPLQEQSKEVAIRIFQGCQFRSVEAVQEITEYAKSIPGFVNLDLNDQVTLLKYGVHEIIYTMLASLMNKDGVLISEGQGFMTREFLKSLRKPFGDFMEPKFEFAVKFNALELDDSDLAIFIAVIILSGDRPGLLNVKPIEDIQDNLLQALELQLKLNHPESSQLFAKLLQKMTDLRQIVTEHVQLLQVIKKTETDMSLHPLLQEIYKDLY
# [1] = biological target: T2, Zinc finger protein 346 (ZNF346) (Homo sapiens, UniProt Q9UL40); test: SILAC competitive profiling with probe 24c in MCF7 lysates: ZNF346; assay type: binding; conditions: 1 h, then 10 µM 24c
# T2 construct: 1,522 proteins were enriched from MCF7 cells by 10 μM probe 24c; endogenous in cells; host or cells: MCF7
# Source text: In our efforts to determine the direct molecular targets of deoxyelephantopin we first performed a gel-based competitive in situ proteomic profiling assay[41] […] While the greater conformational flexibility of probe 24c could potentially lead to more promiscuous target engagement relatively to deoxyelephantopin, it was favoured based on the fact that an alkyne moiety appended to the rigid scaffold of deoxyelephantopin may hinder some of its interactions. MCF7 cells were pretreated with various concentrations of deoxyelephantopin for 4 h, harvested, lysed and the lysates were treated with the fluorogenic probe 24c-Cy3 (10 μM; Supplementary Fig. 10). […] Furthermore, cells were pretreated with 20 μM concentration of deoxyelephantopin or 24c and the proteomic profiles were compared (Fig. 6b, Supplementary Fig. 11). Multiple bands were detected that were equally competed by both DEP and 24c, thus again confirming that 24c can be used as an acceptable clickable analogue of deoxyelephantopin in pulldown assays. Having established the optimal labelling conditions by SDS–PAGE, we next carried out a mass spectrometry-based competitive profiling assay[42] coupled with the method of stable isotope labelling of amino acids in culture (SILAC)[43]. […]
# visualization were performed as described above. Images were quantified with ImageJ and kinetics values were calculated using GraphPad Prism (V6.03). […]
# T2 sequence (Q9UL40 whole entry): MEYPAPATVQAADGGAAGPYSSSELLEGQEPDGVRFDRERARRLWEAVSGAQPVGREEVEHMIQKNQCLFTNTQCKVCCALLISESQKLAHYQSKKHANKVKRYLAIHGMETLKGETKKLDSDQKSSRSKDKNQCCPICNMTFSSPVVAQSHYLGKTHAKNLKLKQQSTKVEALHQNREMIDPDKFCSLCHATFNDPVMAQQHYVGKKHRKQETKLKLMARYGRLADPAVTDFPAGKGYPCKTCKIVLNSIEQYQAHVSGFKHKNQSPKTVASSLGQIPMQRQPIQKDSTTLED
structure (smiles),measurement,setting,value
C=C(C)C(=O)O[C@H]1CC2=C[C@@H](C/C(C)=C/[C@H]3OC(=O)C(=C)[C@H]13)OC2=O [deoxyelephantopin],competition of PPARγ labelling by 24c-Cy3,PPARγ,efficient competition
same,SILAC ratio 20 µM Deoxyelephantopin/DMSO with 24c,[1],0.22
